The values below come from US20240197733A1, “A GABA RECEPTOR MODULATOR FOR USE IN THE TREATMENT OF PAIN” (SANIONA A/S, priority 2021, published 2024).

Assay [1] has as its system electrocutaneous stimulation-induced facial pain rodent model. Briefly: ES-induced facial pain model, mechanical allodynia (Von Frey filaments), acute treatment. The assay is classed as in vivo, Sprague-Dawley rats. The conditions noted are these: for effect on mechanical allodynia (mechanical pain threshold, Von Frey) vs vehicle: acute. From the text:
(§1) The electrocutaneous stimulation-induced facial pain rodent model is a reproducible orofacial pain model in which depilated cheek area of rats are repeatedly subjected to electrical stimulation. Repeated electrical stimulation at low intensities produces craniofacial pain that mimics the behavioral characteristics of TN such as development of mechanical and thermal allodynia at cheeks despite no visible edema, swelling or excessive injury and tissue damage.
(§2) Male wild type, Sprague-Dawley rats (Charles River Laboratories) born in-house at AfaSci Research Laboratory between May 24, 2020 to May 28, 2020. At approximately 3 months of age (approximately 350 g-450 g body weight) the rats were deemed suitable for the electrocutaneous stimulation-induced facial pain model. Prior to the experiment, the rats were maintained in group cages (3 rats per cage) in a controlled environment (temperature: 21.5±4.5° C./relative humidity: 35-55%) under a standard 12 h light/12 h dark lighting cycle (lights on at 06:00).
(§3) The required quantity of the compounds are weighed and dissolved in 100% DMSO in a volume amounting to 5% of the total volume while placed on a stirrer. The weight of the compounds refers to the free base weights. Once the solution becomes clear/transparent, the remaining volume of the vehicle is added (30% HPBCD prepared in MQ water) to final concentrations of 0.1, 0.3, and 1 mg/ml for Compound 1 and 3 mg/ml of Carbamazepine. The solutions are kept on a stirrer before- and during administration of the compounds to the animals.
(§4) The experimenter assessing the behavioral responses to drug administration is blinded to the drug treatment to the animals. Each treatment group is coded according the scheme below: • A. Vehicle (5% DMSO+30% HPBCD): 10 ml/kg • B. Compound 1: 1 mg/kg • C. Compound 1: 3 mg/kg • D. Compound 1: 10 mg/kg • F. Carbamazepine: 30 mg/kg
Second baseline measurement was carried out similarly to day 1. […] For each animal, the average of the two baseline nociceptive measurements were calculated within each pain modality (mechanical, heat- and cold pain), and used as baseline (“Baseline” point on figures).
Similarly, to day 1- and 2, all rats were subjected to acclimatization to test equipment and decapicone followed by measurements of ES-induced facial mechanical- heat- and cold allodynia (“0” time point on figures). […] Compound 1, vehicle and Carbamazepine was administered perorally in doses of 1, 3, and 10 mg/kg (Compound 1) or 30 mg/kg (carbamazepine) and drug effects on pain thresholds were evaluated 2- and 4 hours after drug administration by assessment of mechanical- (von Frey) and thermal hypersensitivity (heat- and cold stimulation respectively).
(§5) Decrease in ES-induced pain threshold was evaluated 22 hours following electrical stimulation of the depilated left cheek area (between the eye and ear ridge, this is a receptive field of trigeminal nerve) of each rat and was manifested as facial withdrawal following application of Von Frey filaments for mechanical allodynia and a heat lamp and acetone test for thermal hyperalgesia and allodynia respectively. Baseline pain behaviors were measured similarly to ES-induced facial pain measurements, except that rats were not subjected to ES stimulation.
Mechanical pain thresholds were assessed by measuring each rat's facial withdrawal threshold (g) in response to von Frey monofilaments (BioSeb). […]

Assay [2] shares this test system. Briefly: ES-induced facial pain model, hot thermal hyperalgesia (lamp test, selective C fiber testing), acute treatment. The assay is classed as in vivo, Sprague-Dawley rats.
Excerpt: as §1, §2, §3, §4
Second baseline measurement was carried out similarly to day 1. Immediately following the second baseline recording, each rat received 1 hr of electrocutaneous stimulation at cheek (0.4 mA intensity, 10 ms duration, 1 s inter-pulse interval). For each animal, the average of the two baseline nociceptive measurements were calculated within each pain modality (mechanical, heat- and cold pain), and used as baseline (“Baseline” point on figures).
Similarly, to day 1- and 2, all rats were subjected to acclimatization to test equipment and decapicone followed by measurements of ES-induced facial mechanical- heat- and cold allodynia (“0” time point on figures). Based on the individual rat's mechanical- and thermal hypersensitivity, 40 rats were selected for drug testing. Compound 1, vehicle and Carbamazepine was administered perorally in doses of 1, 3, and 10 mg/kg (Compound 1) or 30 mg/kg (carbamazepine) and drug effects on pain thresholds were evaluated 2- and 4 hours after drug administration by assessment of mechanical- (von Frey) and thermal hypersensitivity (heat- and cold stimulation respectively).
as §5
Immediately following assessment of mechanical pain threshold, thermal (hot- and cold induced) pain was determined. […]

Assay [3] shares this test system. Briefly: ES-induced facial pain model, cold thermal allodynia (acetone test), prophylactic and acute treatment. The assay is classed as in vivo, Sprague-Dawley rats. To be noted: for development of cold allodynia vs vehicle: day 9 at 0 time. The method, then: Cold Thermal threshold was assessed by measuring each rat's facial withdrawal latency (seconds) in response to a single 10 uL drop of acetone directly on the depilated and stimulated rat cheek. Cutoff was set at 60 seconds. Facial withdrawal response criteria were as following: burrowing head, shaking of head back-and-forth, excessive blinking, turning head away from experimenter. Unless stated otherwise, the same materials, methods, and provisions of Example 1 were applied to Example 2. The required quantity of the compound is weighed and dissolved in 100% DMSO in a volume amounting to 5% of the total volume while placed on a stirrer. The weight of the compounds refers to the free base weights. Once the solution becomes clear/transparent, the remaining volume of the vehicle is added (30% HPBCD prepared in MQ water) to final concentrations of 0.03, 0.1, and 0.3 mg/ml for Compound 1. The solutions are kept on a stirrer before- and during administration of the compounds to the animals. The experimenter assessing the behavioral responses to drug administration is blinded to the drug treatment to the animals. Each treatment group is coded according the scheme below: • A. Vehicle (5% DMSO+30% HPBCD): 10 ml/kg • B. Compound 1: 0.3 mg/kg • C. Compound 1: 1 mg/kg • D. Compound 1: 3 mg/kg • F. Compound 1: 3 mg/kg—acute Second baseline measurement was carried out similarly to day 1, For each animal, the average of the two baseline nociceptive measurements was calculated within each pain modality (mechanical, heat- and cold pain), and used as baseline (“Baseline” point on figures). Then all rats in the above respective group (A-D) are given treated as mentioned. Group F received vehicle treatment. Treatment is continued once daily to each group same as Day 2 All rats were treated with respective treatment as per day 3-7. After 1 hr of treatment, each rat was subjected to 1 hr of electrocutaneous stimulation at depilated cheek (0.4 mA intensity, 10 ms duration, 1 s inter-pulse interval). Similar to day 1- and 2, all rats were acclimatized to test equipment followed by measurements of ES-induced facial mechanical- heat- and cold allodynia (“0” time point on figures). After measurement of hypersensitivity threshold, rats from group A-D received the vehicle and three doses of Compound 1 as mentioned above while group F received single acute dose of 3 mg/kg of Compound 1. Treatment effects on pain thresholds were evaluated 2- and 4 hours after administration by assessing mechanical- (Von Frey) and thermal (heat and cold) withdrawal threshold.

Assay [4] addresses GABAA receptors containing the a3 subunit (Homo sapiens, UniProt P18507+P34903). To be noted: cited from earlier work.

SMILES strings stand for the structures.

Sequence of GABAA receptors containing the a3 subunit (P34903 29-492): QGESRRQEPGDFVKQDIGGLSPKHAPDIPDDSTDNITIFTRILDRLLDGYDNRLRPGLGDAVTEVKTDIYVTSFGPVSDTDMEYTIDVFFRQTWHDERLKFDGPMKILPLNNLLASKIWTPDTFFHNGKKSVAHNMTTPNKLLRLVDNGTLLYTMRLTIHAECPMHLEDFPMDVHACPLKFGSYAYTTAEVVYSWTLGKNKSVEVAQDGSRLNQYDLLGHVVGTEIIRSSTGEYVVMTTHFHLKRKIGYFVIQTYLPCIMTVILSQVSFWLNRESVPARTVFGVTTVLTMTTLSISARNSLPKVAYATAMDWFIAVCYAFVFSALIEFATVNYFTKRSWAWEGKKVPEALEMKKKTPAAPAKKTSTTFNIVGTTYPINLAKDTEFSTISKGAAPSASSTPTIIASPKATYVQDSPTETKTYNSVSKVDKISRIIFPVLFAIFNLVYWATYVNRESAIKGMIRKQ
Sequence of GABAA receptors containing the a3 subunit (P47870 25-512 partner limits assumed): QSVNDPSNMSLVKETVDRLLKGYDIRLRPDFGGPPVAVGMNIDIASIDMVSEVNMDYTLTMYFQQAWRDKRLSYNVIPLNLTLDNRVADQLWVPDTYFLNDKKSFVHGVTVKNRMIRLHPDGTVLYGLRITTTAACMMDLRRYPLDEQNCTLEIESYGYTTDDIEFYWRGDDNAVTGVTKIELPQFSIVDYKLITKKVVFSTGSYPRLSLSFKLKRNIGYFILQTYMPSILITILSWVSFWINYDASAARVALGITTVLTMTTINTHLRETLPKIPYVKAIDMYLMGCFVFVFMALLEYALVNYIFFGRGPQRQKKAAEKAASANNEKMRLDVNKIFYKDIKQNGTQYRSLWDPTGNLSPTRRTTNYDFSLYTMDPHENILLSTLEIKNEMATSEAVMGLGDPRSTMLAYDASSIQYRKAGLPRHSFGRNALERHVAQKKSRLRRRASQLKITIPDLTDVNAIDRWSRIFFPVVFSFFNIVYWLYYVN
Sequence of GABAA receptors containing the a3 subunit (P18507 40-475): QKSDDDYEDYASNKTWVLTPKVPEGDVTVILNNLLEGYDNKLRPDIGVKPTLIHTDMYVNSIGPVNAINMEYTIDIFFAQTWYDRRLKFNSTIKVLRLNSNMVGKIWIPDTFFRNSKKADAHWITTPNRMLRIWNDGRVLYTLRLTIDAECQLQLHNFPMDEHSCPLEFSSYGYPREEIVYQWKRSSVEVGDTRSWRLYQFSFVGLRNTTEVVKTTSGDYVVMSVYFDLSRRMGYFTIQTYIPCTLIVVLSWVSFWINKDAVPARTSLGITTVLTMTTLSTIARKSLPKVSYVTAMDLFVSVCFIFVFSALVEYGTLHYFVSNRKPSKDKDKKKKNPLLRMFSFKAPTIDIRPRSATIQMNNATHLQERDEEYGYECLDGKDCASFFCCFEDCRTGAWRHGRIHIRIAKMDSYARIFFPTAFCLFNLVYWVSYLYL

Turning to `COc1ncc(-c2cccc(-n3cnc4cc(C(C)(C)O)cnc43)c2)c(OC)n1` [Compound 1, 2-(3-(3-(2,4-dimethoxypyrimidin-5-yl)phenyl)-3H-imidazo[4,5-b]pyridin-6-yl)propan-2-ol], the “effect on mechanical allodynia (mechanical pain threshold, Von Frey) vs vehicle” value in assay [1] (3 mg/kg po, 4 hours post dosing, p<0.05 vs vehicle) was “significant analgesic effect”; in assay [1] (10 mg/kg po, 2 hrs, p<0.05 vs vehicle), “reversed the mechanical allodynia”; in assay [1] (10 mg/kg po, 4 hours post dosing, p<0.0001 vs vehicle), “significant analgesic effect”. In assay [1] (10 mg/kg po, post 4 hrs of treatment), the “analgesic effect on mechanical allodynia compared with carbamazepine 30 mg/kg p.o.” value is listed as “comparable analgesic effect with carbamazepine”. Further, the “effect on heat thermal hyperalgesia (facial withdrawal latency) vs vehicle” value in assay [2] (3 mg/kg po, post 2 and 4 hrs, p<0.05 and p<0.001 vs vehicle) is “significantly reversed the mechanical allodynia”; in assay [2] (10 mg/kg po, 2 and 4 hrs post dose, p<0.0001) it was “significantly produced reversal of hyperalgesia”. The “reversal of hyperalgesia in the thermal heat test (conclusion)” value in assay [2] (10 mg/kg po, highest dose tested, similar to Carbamazepine 30 mg/kg) is given as “full reversal of hyperalgesia”. Also, in assay [2] (1, 3 and 10 mg/kg po), the “effect on heat thermal hyperalgesia (facial withdrawal latency), dose dependence” value is on record as “dose dependently reversed the heat thermal hyperalgesia”. For the same compound, the “minimal effective dose, heat thermal hyperalgesia” value in assay [2] (po, p<0.01 and p<0.05 vs vehicle 2 and 4 hrs post dose) is on record as 1 mg/kg. The “effect on established cold allodynia vs vehicle” value in assay [3] (acute 3 mg/kg po on day 9, p<0.001 and p<0.0001 post 2 and 4 hrs) is reported as “reversed the mechanical allodynia”; in assay [3] (prophylactic 0.3 mg/kg po plus additional dose on day 9, p>0.05 post 2 hrs, p<0.01 post 4 hrs), “reversed the cold allodynia dose dependently”; in assay [3] (prophylactic 1 mg/kg po plus additional dose on day 9, p<0.01 post 2 hrs, p<0.0001 post 4 hrs), “reversed the cold allodynia dose dependently”; in assay [3] (prophylactic 3 mg/kg po plus additional dose on day 9, p<0.0001 post 2 hrs and post 4 hrs), “reversed the cold allodynia dose dependently”. Besides, the “development of cold allodynia vs vehicle” value in assay [3] (prophylactic 1 mg/kg po once daily for 7 days, p<0.05 vs vehicle) is given as “significantly reduced the development of cold allodynia”; in assay [3] (prophylactic 3 mg/kg po once daily for 7 days, p<0.0001 vs vehicle), “significantly reduced the development of cold allodynia”. In addition, the “modulation of GABAA receptors containing the a3 subunit” value in assay [4] is “positive allosteric modulator (PAM)”.
